Experimental data: patent EP1551873B1, “AGONISTS AND ANTAGONISTS OF THE HUMAN ODORANT RECEPTOR OR17-4 AND USES THEREOF” (Symrise AG, priority 2002, dated 2004)

Tests used:
[1] = tested on: humane Spermien; assay: Sperm orientation towards capillary tip (CAVMA, circular statistics, Rayleigh test); type: cell-based, human; conditions: Bourgeonal 10^-8 M and higher
Description: Zur Bestimmung der Chemoattraktion von Spermien und des Effekts eines Antagonisten wurde Bourgeonal allein bei 10^-7 M und in Kombination mit 10^-6, 10^-7, 10^-8 oder 10^-9 M n-Undecanal getestet. Während der Durchführung der Chemotaxis-Bioassays wurde das Spermienverhalten innerhalb eines Bereiches von 300 µm vor jeder Kapillarspitze 30 Sekunden lang auf Video aufgenommen. Die Videoaufnahme begann 10 bis 15 Minuten nach dem Experimentbeginn, um die Bildung eines chemischen Gradienten zu ermöglichen. Die Spermien-Orientierung zum Gradienten hin wurde unter Verwendung von CAVMA quantifiziert. Durch Anwendung zirkulärer Statistiken wurde die mittlere Vektorlänge (r) und die Schwimmrichtung berechnet, um das Bewegungsmuster der untersuchten Spermien zu beschreiben. Der Winkel der Spermienorientierung wurde in Bezug auf einen Ursprung angegeben, der als die kürzeste Verbindung zwischen jeder individuellen Zelle und der Kapillarenspitze (0°) definiert wurde. Um zu bestimmen, ob die Zellbewegung innerhalb des chemischen Gradienten nicht-zufällig war, wurde jede mittlere Ausrichtung mit einer uniformen zirkulären Verteilung unter Verwendung eines unimodalen Rayleigh-Tests (J. H. Zar, Biostatistical Analysis (1984)) verglichen.

[2] = tested on: menschliche Nase; assay: Odour perception test on about 100 human subjects (agonist, antagonist, agonist again); type: in vivo
Description: An ca. 100 Probanden wurde die Wirkung des Agonisten (Bourgeonal, "Duft A") und des Antagonisten (n-Undecanal, "Duft B") getestet. Dabei wurde zuerst an Duft A (1:100 verdünnt) gerochen, dann wurde in kurzem zeitlichen Abstand (1 - 3 s) an Duft B (ebenfalls 1:100 verdünnt) gerochen, anschließend wurde direkt wieder an Duft A gerochen. Die Probanden wurden nach ihrem Riecheindruck befragt: • Alle 100 Probanden konnten beim jeweils ersten Riechen spezifisch Duft A und B wahrnehmen und unterscheiden. Ca. 90 der 100 Testpersonen beschrieben, dass beim zweiten Riechen an Duft A kein Dufteindruck ausgelöst wurde. Nach ca. 1 Minute war Duft A bereits wieder riechbar.

SMILES	Zellbewegungsmuster in der Nähe der Kapillarspitzen [1]	mittlere Vektorlänge (r), Rayleigh-Test ([1]; all comparisons)	Testpersonen ohne Dufteindruck beim zweiten Riechen an Duft A ([2]; Duft B 1:100 sniffed 1 - 3 s after Duft A 1:100, then Duft A again)	Zeit, nach der Duft A wieder riechbar war ([2]; after sniffing Duft B)
CC(C)(C)c1ccc(CCC=O)cc1 [Bourgeonal]	signifikant nicht-zufällig	≥ 0,45	–	–
CCCCCCCCCCC=O [n-Undecanal]	–	–	Ca. 90 der 100 Testpersonen	ca. 1 Minute
